Test results published in ChEMBL document CHEMBL4152270, “Free radical rearrangement synthesis and microbiological evaluation of novel 2-sulfoether-4-quinolone scaffolds as potential antibacterial agents” (Eur J Med Chem, 2018).
Values after ≈ are worked out from the molar mass of the structure shown. Active and inactive are the calls of the source. The rule behind the calls is not given here.

Experiments:
Staphylococcus aureus [1] = assay: Antimicrobial activity against Staphylococcus aureus after 18 to 20 hrs by micro broth dilution method; type: functional
Bacillus cereus [2] = assay: Antimicrobial activity against Bacillus cereus after 18 to 20 hrs by micro broth dilution method; type: functional
Pseudomonas aeruginosa = assay: Antimicrobial activity against Pseudomonas aeruginosa after 18 to 20 hrs by micro broth dilution method; type: functional
Escherichia coli = assay: Antimicrobial activity against Escherichia coli after 18 to 20 hrs by micro broth dilution method; type: functional
Candida albicans = assay: Antimicrobial activity against Candida albicans after 18 to 20 hrs by micro broth dilution method; type: functional
Staphylococcus aureus [3] = assay: Bactericidal activity against Staphylococcus aureus after 24 hrs by micro broth dilution method; type: functional
Bacillus cereus [4] = assay: Bactericidal activity against Bacillus cereus after 24 hrs by micro broth dilution method; type: functional
Staphylococcus aureus [5] = assay: Antimicrobial activity against methicillin-resistant Staphylococcus aureus after 18 to 20 hrs by micro broth dilution method; type: functional
Staphylococcus aureus [6] = assay: Growth inhibition of Staphylococcus aureus at 1 to 4 times MIC after 24 hrs; type: functional, organism-based
Staphylococcus aureus [7] = assay: Growth inhibition of Staphylococcus aureus at 0.25 to 0.5 times MIC after 24 hrs; type: functional, organism-based
DNA gyrase subunit A = DNA gyrase subunit A (Staphylococcus aureus, UniProt P20831); assay: Inhibition of Staphylococcus aureus DNA gyrase subunit A supercoiling activity using relaxed pBR322 DNA as substrate after 60 mins by agarose gel electrophoresis
Staphylococcus aureus [8] = assay: Induction of morphological changes in Staphylococcus aureus ATCC 6538 assessed as cell wall swelling at 0.8 uM after 24 hrs by transmission electron microscopy; type: functional, organism-based
Staphylococcus aureus [9] = assay: Induction of cell wall damage in Staphylococcus aureus ATCC 6538 assessed as emergence of solute loss at 0.8 uM after 24 hrs by transmission electron microscopy; type: functional, organism-based
Staphylococcus aureus [10] = assay: Induction of cell wall damage in Staphylococcus aureus ATCC 6538 assessed as blemishes on cell wall at 0.8 uM after 24 hrs by transmission electron microscopy; type: functional, organism-based
Staphylococcus aureus [11] = assay: Induction of morphological changes in Staphylococcus aureus ATCC 6538 assessed as shrinkage of cell morphology at 0.8 uM after 24 hrs by transmission electron microscopy; type: functional, organism-based
Staphylococcus aureus [12] = assay: Induction of cell death in Staphylococcus aureus ATCC 6538 at 0.8 uM after 24 hrs by transmission electron microscopy; type: functional, organism-based

Sequence of DNA gyrase subunit A (P20831 whole entry): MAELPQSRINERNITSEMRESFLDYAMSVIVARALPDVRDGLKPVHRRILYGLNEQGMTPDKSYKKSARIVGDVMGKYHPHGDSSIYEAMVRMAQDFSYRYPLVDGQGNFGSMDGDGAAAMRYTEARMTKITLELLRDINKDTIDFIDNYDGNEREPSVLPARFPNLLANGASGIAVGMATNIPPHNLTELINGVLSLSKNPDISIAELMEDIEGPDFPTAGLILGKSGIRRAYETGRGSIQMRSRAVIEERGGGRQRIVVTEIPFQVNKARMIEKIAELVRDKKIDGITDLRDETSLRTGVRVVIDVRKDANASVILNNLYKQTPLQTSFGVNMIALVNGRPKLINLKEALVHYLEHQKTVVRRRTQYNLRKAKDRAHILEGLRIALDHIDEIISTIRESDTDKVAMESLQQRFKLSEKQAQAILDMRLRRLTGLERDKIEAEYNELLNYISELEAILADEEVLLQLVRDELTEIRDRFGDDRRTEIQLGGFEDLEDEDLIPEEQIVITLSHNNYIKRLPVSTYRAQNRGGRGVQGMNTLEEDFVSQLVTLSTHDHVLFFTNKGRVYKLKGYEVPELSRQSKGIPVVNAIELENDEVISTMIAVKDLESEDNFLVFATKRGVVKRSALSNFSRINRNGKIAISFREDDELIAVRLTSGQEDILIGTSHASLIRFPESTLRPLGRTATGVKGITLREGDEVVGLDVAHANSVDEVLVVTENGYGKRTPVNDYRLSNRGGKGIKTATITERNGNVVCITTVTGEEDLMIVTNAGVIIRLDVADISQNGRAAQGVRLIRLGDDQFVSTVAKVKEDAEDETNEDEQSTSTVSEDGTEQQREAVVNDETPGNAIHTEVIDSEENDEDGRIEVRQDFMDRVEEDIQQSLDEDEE

Compound	MIC (Staphylococcus aureus [1]) [µM]	MIC (Bacillus cereus [2]) [µM]	MIC (Pseudomonas aeruginosa) [µM]	MIC (Escherichia coli) [µM]	MIC (Candida albicans)	MBC (Staphylococcus aureus [3]) [µM]	MBC (Bacillus cereus [4]) [µM]	MIC (Staphylococcus aureus [5]) [µM]	growth inhibition (GI) (Staphylococcus aureus [6])	growth inhibition (GI) (Staphylococcus aureus [7])	IC50 (DNA gyrase subunit A) [µM]	Activity (Staphylococcus aureus [8])	Activity (Staphylococcus aureus [9])	Activity (Staphylococcus aureus [10])	Activity (Staphylococcus aureus [11])	Activity (Staphylococcus aureus [12])
CSc1[nH]c2c(Cl)ccc(C(F)(F)F)c2c(=O)c1C(C)=O	0.8 (≈ 0.269 µg/mL)	1.6 (≈ 0.537 µg/mL)	> 200	> 200	> 200 µM	12.5 (≈ 4.2 µg/mL)	12.5 (≈ 4.2 µg/mL)	> 200	Active	inactive						
OC(Cn1cncn1)(Cn1cncn1)c1ccc(F)cc1F [FLUCONAZOLE]					1 µg/mL											
CSc1[nH]c2c(Cl)cc(C(F)(F)F)cc2c(=O)c1C(C)=O	0.8 (≈ 0.269 µg/mL)	1.6 (≈ 0.537 µg/mL)	> 200	> 200	> 200 µM	6.25 (≈ 2.1 µg/mL)	6.25 (≈ 2.1 µg/mL)	> 200	Active	inactive	8.01					
CSc1[nH]c2c(C(F)(F)F)ccc(C(F)(F)F)c2c(=O)c1C(C)=O	0.8 (≈ 0.295 µg/mL)	1.6 (≈ 0.591 µg/mL)	> 200	> 200	200 µM	6.25 (≈ 2.31 µg/mL)	6.25 (≈ 2.31 µg/mL)	> 200	Active	inactive	1.92	Active	Active	Active	Active	Active
CC(=O)c1c([S+](C)[O-])[nH]c2ccc(C(F)(F)F)cc2c1=O (stereo not drawn)	12.5 (≈ 3.97 µg/mL)	3.12 (≈ 0.992 µg/mL)	> 200	> 200	> 200 µM	50 (≈ 15.9 µg/mL)	50 (≈ 15.9 µg/mL)	> 200								
CSc1[nH]c2ccc(C)cc2c(=O)c1C(C)=O	> 200	> 200	> 200	> 200	> 200 µM											
CSc1[nH]c2cc(C(F)(F)F)c(C#N)cc2c(=O)c1C(C)=O	0.8 (≈ 0.261 µg/mL)	1.6 (≈ 0.522 µg/mL)	> 200	> 200	200 µM	25 (≈ 8.16 µg/mL)	25 (≈ 8.16 µg/mL)	> 200	Active	inactive	6.47					
CSc1[nH]c2c(F)ccc(C(F)(F)F)c2c(=O)c1C(C)=O	0.8 (≈ 0.255 µg/mL)	3.12 (≈ 0.998 µg/mL)	> 200	> 200	200 µM	6.25 (≈ 2 µg/mL)	6.25 (≈ 2 µg/mL)	> 200			2.47					
CSc1[nH]c2c(Cl)cc([N+](=O)[O-])cc2c(=O)c1C(C)=O	12.5 (≈ 3.91 µg/mL)	6.25 (≈ 1.95 µg/mL)	> 200	> 200	> 200 µM	> 200	> 200	> 200			80.3					
CSc1[nH]c2ccc(Br)cc2c(=O)c1C(C)=O	25 (≈ 7.8 µg/mL)	200 (≈ 62.4 µg/mL)	> 200	> 200	> 200 µM											
CC1COc2c(N3CCN(C)CC3)c(F)cc3c(=O)c(C(=O)O)cn1c23 (stereo not drawn) [OFLOXACIN]	0.125 (≈ 0.0452 µg/mL)	0.8 (≈ 0.289 µg/mL)	4 (≈ 1.45 µg/mL)	0.5 (≈ 0.181 µg/mL)		0.5 (≈ 0.181 µg/mL)	1.6 (≈ 0.578 µg/mL)	100 (≈ 36.1 µg/mL)								
CC(=O)c1c(O)[nH]c2ccc(C(F)(F)F)cc2c1=O	> 200	> 200	> 200	> 200	> 200 µM											
CSc1[nH]c2cc(C(F)(F)F)ccc2c(=O)c1C(C)=O	3.12 (≈ 0.942 µg/mL)	50 (≈ 15.1 µg/mL)	> 200	> 200	> 200 µM	6.25 (≈ 1.88 µg/mL)	> 200	> 200								
CSc1[nH]c2c(C)cccc2c(=O)c1C(C)=O	> 200	> 200	> 200	> 200	> 200 µM											
C[C@@H]1[C@H](O)[C@@H](C)/C=C/C=C/C=C/C=C/C=C/C=C/C=C/[C@H](O[C@@H]2O[C@H](C)[C@@H](O)[C@H](N)[C@@H]2O)C[C@@H]2O[C@](O)(C[C@@H](O)C[C@@H](O)[C@H](O)CC[C@@H](O)C[C@@H](O)CC(=O)O[C@H]1C)C[C@H](O)[C@H]2C(=O)O [AMPHOTERICIN B]					0.2 µg/mL											
CSc1[nH]c2c(Br)cccc2c(=O)c1C(C)=O	6.25 (≈ 1.95 µg/mL)	> 200	> 200	> 200	> 200 µM	25 (≈ 7.8 µg/mL)	> 200	> 200								
CCSc1[nH]c2ccc(C(F)(F)F)cc2c(=O)c1C(C)=O	6.25 (≈ 1.97 µg/mL)	25 (≈ 7.88 µg/mL)	> 200	> 200	> 200 µM	25 (≈ 7.88 µg/mL)	50 (≈ 15.8 µg/mL)	> 200			16.2					
CSc1[nH]c2cc(Br)ccc2c(=O)c1C(C)=O	12.5 (≈ 3.9 µg/mL)	200 (≈ 62.4 µg/mL)	> 200	> 200	> 200 µM											
GENTAMICIN	0.8	1.6	1	0.125		3.2	3.2	> 200								
COc1cccc2c(=O)c(C(C)=O)c(SC)[nH]c12	> 200	> 200	> 200	> 200	> 200 µM											
CSc1[nH]c2ccccc2c(=O)c1C(C)=O	> 200	> 200	> 200	> 200	> 200 µM											
CSc1[nH]c2c(Cl)cccc2c(=O)c1C(C)=O	> 200	> 200	> 200	> 200	> 200 µM											
CSc1[nH]c2ccc(C(F)(F)F)cc2c(=O)c1C(C)=O	6.25 (≈ 1.88 µg/mL)	50 (≈ 15.1 µg/mL)	> 200	> 200	> 200 µM	25 (≈ 7.53 µg/mL)	> 200	> 200								
COc1ccc(C(F)(F)F)c2c(=O)c(C(C)=O)c(SC)[nH]c12	> 200	> 200	> 200	> 200	> 200 µM											
CSc1[nH]c2ccc(OC(F)(F)F)cc2c(=O)c1C(C)=O	3.12 (≈ 0.992 µg/mL)	12.5 (≈ 3.97 µg/mL)	> 200	> 200	> 200 µM	25 (≈ 7.93 µg/mL)	25 (≈ 7.93 µg/mL)	> 200								
CN(C)[C@@H]1C(O)=C(C(N)=O)C(=O)[C@@]2(O)C(O)=C3C(=O)c4c(O)cccc4[C@@](C)(O)[C@H]3C[C@@H]12 [TETRACYCLINE]	0.0325 (≈ 0.0144 µg/mL)	1.6 (≈ 0.711 µg/mL)	2 (≈ 0.889 µg/mL)	0.25 (≈ 0.111 µg/mL)		0.125 (≈ 0.0556 µg/mL)	3.2 (≈ 1.42 µg/mL)	200 (≈ 88.9 µg/mL)								
COc1ccc2[nH]c(SC)c(C(C)=O)c(=O)c2c1	> 200	> 200	> 200	> 200	> 200 µM											
